According to ChEMBL document CHEMBL4270572, “Synthesis and biological evaluation of novel larotaxel analogues” (Eur J Med Chem, 2018):

Assays:
[1] = in vivo; details: beagle, dog, iv, 1.2 mg/kg
[2] = in vivo; details: beagle, dog, iv, 1.2 mg/kg; remark: listed apart in the source
[3] = in vivo; details: beagle, dog, iv, 2.4 mg/kg
[4] = in vivo; details: beagle, dog, iv, 1.2 mg/kg; remark: listed apart in the source
[5] = in vivo; details: beagle, dog, iv, 0.6 mg/kg
[6] = in vivo; details: beagle, dog, iv, 0.6 mg/kg; remark: listed apart in the source
[7] = in vivo; details: beagle, dog, iv, 0.6 mg/kg; remark: listed apart in the source
[8] = in vivo; details: beagle, dog, iv, 1.2 mg/kg; remark: listed apart in the source
[9] = in vivo; details: beagle, dog, iv, 0.6 mg/kg; remark: listed apart in the source
[10] = in vivo; details: beagle, dog, iv, 2.4 mg/kg; remark: listed apart in the source
[11] = in vivo; details: beagle, dog, iv, 2.4 mg/kg; remark: listed apart in the source
[12] = in vivo; details: beagle, dog, iv, 2.4 mg/kg; remark: listed apart in the source

CC(=O)O[C@H]1C(=O)[C@]23C[C@H]2C[C@H]2OC[C@@]2(OC(C)=O)[C@H]3[C@H](OC(=O)c2ccccc2)[C@]2(O)C[C@H](OC(=O)[C@H](O)[C@H](CC(C)C)NC(=O)OC(C)(C)C)C(C)=C1C2(C)C
Cmax [1]: 388 ng/mL | Vd [2]: 34.8 L/kg | half-life [3]: 8.35 h | half-life [4]: 11.2 h | Tmax [5]: 0.89 h | Vd [6]: 45.6 L/kg | half-life [7]: 6.06 h | Tmax [8]: 0.81 h | Cmax [9]: 67.1 ng/mL | Cmax [10]: 974 ng/mL | Vd [11]: 30.8 L/kg | Tmax [12]: 0.97 h
